Laboratory results taken from US20130197047A1, “OPHTHALMIC COMPOSITIONS OF PARASYMPATHETIC STIMULANTS AND ANTI-INFLAMMATORIES FOR USE IN THE TREATMENT OF PRESBYOPIA” (priority 2006, published 2013).
Where a name gives a salt, the structure may show the parent alone.

Tests used:
Presbiopic patients = assay: Topical eye-drop treatment of presbyopic patients (100 patients, 4 groups), follow-up of near and distant visual sharpness and tolerance; format: in vivo, human; details: of 100 patients treated
Method: 100 Presbiopic patients of both sexes, of age 40 to 65, were treated with the compositions of the invention. Exclusion criteria concerned patients with myopia or astigmatism higher than 1 dioptre, and hypermetropia greater than 3 dioptres as well as those with corneal, lens and vitreous opacitis, and chronic general pathologies. 4 Different groups of presbyopic population were differentiated: Group 1: Pure presbyopics Group 2: Presbyopics with hypermetropia Group 3: Presbyopics with phorias Group 4: Presbyopics with glaucoma Patients of all groups were treated with eye drops of different concentrations and combinations of medicaments acting on the ocular sympathetic innervation. Pure presbyopic patients (Group 1) were topically treated with 1% pilocarpine hydrochloride+0.5% diclofenac sodium, at 6 hr intervals during the daily hours; treatment was suspended at night. Presbyopics with hypermetropia (Group 2) were topically treated with 2% pilocarpine hydrochloride+0.5% diclofenac sodium, at 6 hr intervals during the daily hours. […] All patients were monitored after one week treatment and monthly during the first three months to evaluate dosage and side-effects. […]

presbyopic patient = details: does not solve blurred distant vision; cited from earlier work

| Structure (SMILES) | patients showed intolerance (diarrhoea and dyspepsia) (Presbiopic patients) [patients] | result of topical application to presbyopic patient (presbyopic patient) |
| --- | --- | --- |
| CC[C@@H]1C(=O)OC[C@@H]1Cc1cncn1C [pilocarpine hydrochloride] | 2 | – |
| CNC(=O)Oc1ccc2c(c1)[C@]1(C)CCN(C)[C@@H]1N2C [physostygmine] | – | poor results |
